The values that follow come from patent publication US9113650B2, “Pectic enzyme treated pectin, method of producing the same and application thereof” (NATIONAL PINGTUNG UNIVERSITY OF SCIENCE AND TECHNOLOGY, priority 2011, dated 2015).

What all share (type): biochemical
Experiment [1] in a line: Trolox equivalent antioxidant capacity (TEAC), ABTS. As for the experimental part: The ABTS could serve as the free radical source. After the mixture reacted in the dark for 12 to 16 hours and generated stably blue-green ABTS, followed by adding 0.25 mL of various concentrations of sample solutions (i.e. pectin solution, PET-pectin solution, BHT solution or Vit. E solution listed in TABLE 2) and reacting for 10 minutes. And then, the light absorbance of those mixtures at 734 nm was detected by the spectrophotometer, and the result was listed in TABLE 4. Each data of TABLE 4 was referred to the mean of samples in at least or more than triplicate. […] E analogue; Sigma, St. Louis, Mo., U.S.A.) standard curve established by using different concentrations of trolox as a reference. The results of TEAC are shown in FIG. 2 and the fourth column of TABLE 4.

Experiment [2] in a line: Reducing power (Prussian blue, OD700 nm). As to the method:
The reducing power of PET-pectin was determined by using the yield of Prussian blue [ferric ferrocyanide; […] In brief, three-valent […] ion (Fe^3+) of red blood salt (potassium […]; […] And then, the light absorbance of Prussian blue at 700 nm was detected to evaluate the reducing power, in which the higher light absorbance was referred to the stronger reducing power. This EXAMPLE could use the conventional method. The PET-pectin was prepared to various concentrations, each 20 μL aliquot of the sample solutions (i.e. pectin solution, PET-pectin solution, BHT solution or Vit. E solution listed in TABLE 2) was added with 50 μL of 0.2 M phosphate buffer (pH 6.6) containing 1% red blood salt [K3Fe(CN)6], incubated in water bath at 50° C. for 20 minutes and added with 50 μL of 10% trichloroacetic acid (TCA) solution. […] The absorbance at 700 nm is measured by the spectrophotometer and listed in the fifth column of TABLE 4, in which the higher light absorbance is referred to the stronger reducing power. Each data of TABLE 4 is referred to the mean of samples in at least or more than triplicate.

Experiment [3] in a line: DPPH radical scavenging activity. As for the experimental part:
4 mL of sample solutions (i.e. pectin solution, PET-pectin solution, BHT solution or Vit. […] And then, the light absorbance of those mixtures at 517 nm was detected by the spectrophotometer, and their DPPH radical scavenging activities (%) were calculated according to the following formula (I), in which the lower light absorbance was referred to the stronger DPPH radical scavenging activity. Each data of TABLE 4 is referred to the mean of samples in triplicate and the result is listed in the third column of TABLE 4. [formula]

Marks after values point to notes of the source that are not given here.

For `Cc1cc(C(C)(C)C)c(O)c(C(C)(C)C)c1` [Butylated hydroxytoluene (BHT), Butylated hydroxytoluene], the results for the “TEAC (mM Trolox)” value in experiment [1] (concentration 0.01 mg/mL) and in experiment [1] (concentration 0.10 mg/mL) were 0.4 ± 0.0^d mM Trolox and 1.3 ± 0.2^c mM Trolox, respectively. Besides, the entries for the “Reducing Power (OD700 nm)” value in experiment [2] (concentration 0.01 mg/mL) and in experiment [2] (concentration 0.10 mg/mL) were 0.5 ± 0.0^d OD700 nm and 1.7 ± 0.1^b OD700 nm, respectively. For the same molecule, the “DPPH radical scavenging activity(%)” value is 5.2 ± 0.4^e % in experiment [3] (concentration 0.01 mg/mL) and 49.2 ± 2.9^c % in experiment [3] (concentration 0.10 mg/mL).

On to `Cc1c(C)c2c(c(C)c1O)CC[C@@](C)(CCC[C@H](C)CCC[C@H](C)CCCC(C)C)O2` [α-tocopherol (Vit. E), α-tocopherol], for which the “TEAC (mM Trolox)” value is on record as 0.5 ± 0.0^d mM Trolox in experiment [1] (concentration 0.01 mg/mL) and 3.5 ± 0.1^b mM Trolox in experiment [1] (concentration 0.10 mg/mL). Besides, the entries for the “Reducing Power (OD700 nm)” value in experiment [2] (concentration 0.01 mg/mL) and in experiment [2] (concentration 0.10 mg/mL) were 0.6 ± 0.0^d OD700 nm and 2.5 ± 0.0^a OD700 nm, respectively. Also, the “DPPH radical scavenging activity(%)” value in experiment [3] (concentration 0.01 mg/mL) was 46.1 ± 0.4^d %; in experiment [3] (concentration 0.10 mg/mL), 96.8 ± 0.5^a %.
